Reference: patent US10736909B2, “Use of trehalose for treatment of neurological diseases” (JUNAXO, INC., priority 2016, dated 2020)
Several values for one entry are separate records, joined by “and”; a condition that tells them apart may be missing. Equal entries are not always repeated. Entries after “also recorded” stand apart in the source; their conditions may differ. Where two headings read alike, the source gives them in different places.

Columns and labels:
[1] = Plasma and brain trehalose levels 30 min post-dose in rat efficacy study (LC-MS/MS); format: in vivo, Sprague-Dawley rats; settings: rats; for concentration at 30 min: Sprague-Dawley, rat
Method: Animal behavior was assessed pre-surgery and at 3 and 6 weeks post-surgery. Behaviour was assessed by the cylinder test to assess forelimb asymmetry with asymmetry indicating an imbalance in striatal dopaminergic function between the side injected with AAV1/2 αSYN and the contralateral side. Compounds that normalize the forelimb asymmetry are potentially useful for treating PD. After 6 weeks of trehalose treatment, the animals were killed approximately 30 mins after the last administration of trehalose. Striatal tissue from both hemispheres was collected and analysed for dopamine levels. Substantia nigra tissue was collected and analysed for the number of TH^+ve cells and the amount of A53T αSYN measured. Plasma and brain (cerebellum) samples were collected and trehalose levels analysed by LC-MS/MS.
When the animals were killed 30 mins post trehalose administration plasma and brain samples were collected (rats in the 0.89 g/kg/day group only received one dose of trehalose (0.89 g/kg) on this day). This time corresponds to approximately the Tmax of orally administered trehalose. […] Trehalose was measurable in the plasma 30 mins after receiving trehalose (0.89 or 2.67 g/kg) by oral gavage (Table 5). A 3-fold increase in the trehalose dose (0.89 g/kg to 2.67 g/kg) lead to an ˜6-fold increase in the trehalose plasma level, i.e. that increasing the dose produced a greater than dose-proportional increase in trehalose exposure. […] Trehalose was measurable in the brains of rats receiving trehalose (2.67 g/kg) by oral gavage (Table 5).
To better understand why administrating the same amount of trehalose by different routes led to differences in efficacy, studies were conducted to measure blood and brain levels of trehalose following administration of trehalose by 2% in the drinking water, three (3) times daily (0.89 g/kg each dose) and once daily (2.67 g/kg/day).

[2] = Plasma, brain and CSF trehalose levels in macaques after 17 weeks administration; format: in vivo, cynomolgus monkeys (Macaca fascicularis); settings: 2.67 g/kg/day p.o. 17 weeks; for concentration at 1 h: female, cynomolgus monkey, po, 1 h after final administration
Description: Twenty-five (25), female cynomolgus monkeys (Macaca fascicularis, 8.0-9.3 years of age, 3.2-4.4 kg) were split into 3 groups (n=8-9/group) and received stereotaxic injection of AAV vectors,either a vector expressing mutant A53T human alpha-synculein (AAV1/2-A53T-alpha-synuclein) or an empty vector (AAV1/2-EV), Genedetect, Auckland, New Zealand) into the substantia nigra. The A53T aSyn expressed is of the human sequence the AAV1/2-EV is a control vector of the same serotype and viral construction. Precise stereotaxic coordinates for all surgeries were calculated prior to surgery from individual monkey MRI scans. Injections containing the AAV1/2-A53T-alpha-synuclein or empty vector were made at a speed of 0.5 μl/min and a volume of 7 μl (at a viral titre of 1.7×10^12 active particles per ml) into 4 sites of each hemisphere of the substantia nigra. Commencing on the day of surgery and continuing for 17 weeks, macaques received either vehicle (sterile drinking water) or trehalose (2.67 g/kg/day) administered as a single daily administration (2.67 g/kg/day, p.o). The macaques were then killed and striatal tissue from both hemispheres was collected and analysed for dopamine and dopamine transporter (DAT) levels. Substantia nigra tissue was collected and analysed for the number of TH^+ve cells and the amount of αSYN measured. Plasma, CSF and brain (cerebellum) samples were collected and trehalose levels analysed by LC-MS/MS.
Single plasma, brain and CSF samples were collected 1 h after the final administration of trehalose. One-hour post-dose corresponds to approximately the Tmax of orally administered trehalose in macaques. The plasma, brain and CSF trehalose levels were 2449±884 ng/ml, 129±35 ng/g and 33±9 ng/ml respectively.

[3] = Plasma and brain pharmacokinetics in rats, 1 and 7 days oral administration; format: in vivo, Sprague-Dawley rats; settings: for AUC(0-t): read-out: AUC0-12h
Method: One hundred Sprague-Dawley rats (200-260 g), female (60) and male (40), received trehalose (2.67 g/kg/day, oral gavage in sterile water) for 1 or 7 days. Groups of 5 rats (3 female, 2 male) were sacrificed at pre-dose and 15 min, 30 min, 1 h, 1.5 h, 2 h, 3 h, 4 h, 8 h and 12 h post-dose on days 1 and 7 and plasma and brain samples collected. Plasma and brain samples were analysed for trehalose levels using a validated LC-MS/MS method and plasma exposure timecourses (FIG. 1) and pharmacokinetic parameters were calculated (Table 6). Brain levels of trehalose were approximately 1% of plasma levels at all time-points (FIG. 1).

[4] = both sexes, Sprague-Dawley, po, rat brain, Day 1, 2.67 g/kg p.o.
[5] = both sexes, Sprague-Dawley, po, rat brain, Day 7, 2.67 g/kg/day p.o.
[6] = both sexes, Sprague-Dawley, po, rat plasma, Day 1, 2.67 g/kg p.o.
[7] = both sexes, Sprague-Dawley, po, rat plasma, Day 7, 2.67 g/kg/day p.o.

## OC[C@H]1O[C@H](O[C@H]2O[C@H](CO)[C@@H](O)[C@H](O)[C@H]2O)[C@H](O)[C@@H](O)[C@@H]1O [trehalose, (2R,3S,4S,5R,6R)-2-(Hydroxymethyl)-6-[(2R,3R,4S,5S,6R)-3,4,5-trihydroxy-6-(hydroxymethyl)oxan-2-yl]oxyoxane-3,4,5-triol]
[1]; brain (cerebellum), cerebellum, 2.67 g/kg once daily oral gavage, 30 min post-dose, read-out: Brain trehalose level
  concentration at 30 min: 52.8 ± 16.9 ng/mL
[1]; plasma, 0.89 g/kg 3 times daily oral gavage, 30 min after one 0.89 g/kg dose, read-out: Plasma trehalose level
  concentration at 30 min: 1130 ± 178 ng/mL
[1]; plasma, 2.67 g/kg once daily oral gavage, 30 min post-dose, read-out: Plasma trehalose level
  concentration at 30 min: 6380 ± 890 ng/mL
[1]; cerebellum, 0.89 g/kg 3 times daily oral gavage, 30 min after one 0.89 g/kg dose
  Brain trehalose level: below the limit of detection and BLQ
[1]; cerebellum, 2% in drinking water
  Brain trehalose level: below the limit of detection and BLQ
[1]; cerebellum, 2.67 g/kg once daily oral gavage, 30 min post-dose
  Brain trehalose level: measurable
[1]; 0.89 g/kg 3 times daily oral gavage, 30 min after one 0.89 g/kg dose
  Plasma trehalose level: measurable
[1]; 0.89 g/kg to 2.67 g/kg, 30 min post-dose
  increase in trehalose plasma level on 3-fold increase in dose: 6 fold and 5.6 fold
[1]; 2% in drinking water, 6 weeks
  Plasma trehalose level: below the limit of quantification and BLQ
[1]; 2.67 g/kg once daily oral gavage, 30 min post-dose
  Plasma trehalose level: measurable
[2]
  correlation of trehalose level in the CSF with level in the brain: significantly correlated
[2]; CSF, read-out: CSF trehalose level
  concentration at 1 h: 33 ± 9 ng/mL
[2]; brain (cerebellum), read-out: brain trehalose level
  concentration at 1 h: 129 ± 35 ng/g
[2]; plasma, read-out: plasma trehalose level
  concentration at 1 h: 2450 ± 884 ng/mL
[3]; [4]
  AUC(0-inf): 97 ng·h/mL
  Cmax: 87 ng/mL
  Tmax: 15 min
  half-life: 48.6 min
  AUC(0-t): 86.8 ng·h/mL
[3]; [5]
  AUC(0-inf): 76.2 ng·h/mL
  Cmax: 73 ng/mL
  Tmax: 15 min
  half-life: 63.6 min
  AUC(0-t): 65.3 ng·h/mL
[3]; [6]
  AUC(0-inf): 11100 ng·h/mL
  Cmax: 8900 ng/mL
  Tmax: 15 min
  half-life: 45.6 min
  AUC(0-t): 10900 ng·h/mL
[3]; [7]
  AUC(0-inf): 9880 ng·h/mL
  Cmax: 8340 ng/mL
  Tmax: 15 min
  half-life: 53.4 min
  AUC(0-t): 9490 ng·h/mL
[3]; both sexes, Sprague-Dawley, rat, brain, po, rats, 2.67 g/kg/day p.o., all time-points, read-out: Brain levels of trehalose as % of plasma levels
  Kp: ~0.01
[3]; rats, 2.67 g/kg/day p.o., 8 h post-dose
  trehalose in plasma or brain 8 h post-dose: no longer detectable; also recorded: No trehalose is found
